Results from US9113629B2, “4-amino-6-(4-substituted-phenyl)-picolinates and 6-amino-2-(4-substituted-phenyl)-pyrimidine-4-carboxylates and their use as herbicides” (DOW AGROSCIENCES LLC, priority 2013, dated 2015).
Read-outs that look alike come from different tables or passages of the source.

Columns and labels:
[1] = tested on: Key Broadleaf Weed and Crop Species; test: Post-emergent Test II herbicidal activity (Table 5); assay type: in vivo; conditions: post-emergence, 336 h, 14 days after application; for pest or weed control at 70 g/ha: application rate 70 g ai/ha; for pest or weed control at 140 g/ha: application rate 140 g ai/ha
Method in brief: (§1)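 Injury was rated visually 14 d after treatment on a 0–100% scale against untreated controls. Test compounds, formulated with crop oil concentrate and surfactant and serially diluted down to 1/16× of the top rate, were applied by track sprayer at 187 L/ha onto first- to second-true-leaf seedlings.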

[2] = tested on: Key Grass and Sedge Weeds as well as Grass Crops; test: Post-emergent Test II herbicidal activity (Table 6); assay type: in vivo; conditions: post-emergence, 336 h; for pest or weed control at 70 g/ha: 70 g ai/ha; for pest or weed control at 140 g/ha: 140 g ai/ha
Method in brief: as §1

[3] = ABUTH: velvetleaf (Abutilon theophrasti), read-out: Visual Growth Reduction (%) 14 Days After Application, ABUTH
[4] = AMARE: redroot pigweed (Amaranthus retroflexus), read-out: Visual Growth Reduction (%) 14 Days After Application, AMARE
[5] = BRSNN: oilseed-rape, canola (Brassica napus), read-out: Visual Growth Reduction (%) 14 Days After Application, BRSNN
[6] = CHEAL: lambsquarters (Chenopodium album), read-out: Visual Growth Reduction (%) 14 Days After Application, CHEAL
[7] = EPHHL: wild poinsettia (Euphorbia heterophylla), read-out: Visual Growth Reduction (%) 14 Days After Application, EPHHL
[8] = HELAN: sunflower (Helianthus annuus), read-out: Visual Growth Reduction (%) 14 Days After Application, HELAN
[9] = VIOTR: wild pansy (Viola tricolor), read-out: Visual Growth Reduction (%) 14 Days After Application, VIOTR
[10] = CYPES: yellow nutsedge (Cyperus esculentus), read-out: Visual Growth Reduction (%) 14 Days After Application, CYPES
[11] = DIGSA: crabgrass (Digitaria sanguinalis), read-out: Visual Growth Reduction (%) 14 Days After Application, DIGSA
[12] = ECHCG: barnyardgrass (Echinochloa crus-galli), read-out: Visual Growth Reduction (%) 14 Days After Application, ECHCG
[13] = ORYSA: rice (Oryza sativa), crop, read-out: Visual Growth Reduction (%) 14 Days After Application, ORYSA
[14] = SETFA: giant foxtail (Setaria faberi), read-out: Visual Growth Reduction (%) 14 Days After Application, SETFA
[15] = SORVU: grain sorghum (Sorghum vulgare), read-out: Visual Growth Reduction (%) 14 Days After Application, SORVU
[16] = TRZSS (wheat, Triticum aestivum), crop, read-out: Visual Growth Reduction (%) 14 Days After Application, TRZSS
[17] = ZEAMX: maize, corn (Zea mays), crop, read-out: Visual Growth Reduction (%) 14 Days After Application, ZEAMX

SMILES	pest or weed control at 70 g/ha [1, 3] [%]	pest or weed control at 140 g/ha [1, 3] [%]	pest or weed control at 70 g/ha [1, 4] [%]	pest or weed control at 140 g/ha [1, 4] [%]	pest or weed control at 70 g/ha [1, 5] [%]	pest or weed control at 140 g/ha [1, 5] [%]	pest or weed control at 70 g/ha [1, 6] [%]	pest or weed control at 140 g/ha [1, 6] [%]	pest or weed control at 70 g/ha [1, 7] [%]	pest or weed control at 140 g/ha [1, 7] [%]	pest or weed control at 70 g/ha [1, 8] [%]	pest or weed control at 140 g/ha [1, 8] [%]	pest or weed control at 70 g/ha [1, 9] [%]	pest or weed control at 140 g/ha [1, 9] [%]	melting point [°C]	pest or weed control at 70 g/ha [2, 10] [%]	pest or weed control at 140 g/ha [2, 10] [%]	pest or weed control at 70 g/ha [2, 11] [%]	pest or weed control at 140 g/ha [2, 11] [%]	pest or weed control at 70 g/ha [2, 12] [%]	other results
COC(=O)c1nc(-c2ccc(C(F)(F)F)c(F)c2)c(F)c(N)c1Cl [Compound 165]	85 to 94	95 to 100	85 to 94	85 to 94	75 to 84	85 to 94	95 to 100	95 to 100	95 to 100	95 to 100	95 to 100	95 to 100	45 to 59	95 to 100	133 to 135	95 to 100	95 to 100	60 to 74	60 to 74	85 to 94	pest or weed control at 140 g/ha [2, 12]: 95 to 100%; pest or weed control at 70 g/ha [2, 13]: 0 to 29%; pest or weed control at 140 g/ha [2, 13]: 0 to 29%; pest or weed control at 70 g/ha [2, 14]: 60 to 74%; pest or weed control at 140 g/ha [2, 14]: 85 to 94%; pest or weed control at 70 g/ha [2, 15]: 60 to 74%; pest or weed control at 140 g/ha [2, 15]: 60 to 74%; pest or weed control at 70 g/ha [2, 16]: 45 to 59%; pest or weed control at 140 g/ha [2, 16]: 45 to 59%; pest or weed control at 70 g/ha [2, 17]: 75 to 84%; pest or weed control at 140 g/ha [2, 17]: 95 to 100%
COC(=O)c1nc(-c2ccc(Br)cc2F)c(F)c(N)c1Cl [Compound 52]	95 to 100	95 to 100	95 to 100	95 to 100	95 to 100	95 to 100	95 to 100	95 to 100	95 to 100	95 to 100	95 to 100	95 to 100	95 to 100	95 to 100	146 to 148	95 to 100	95 to 100	85 to 94	85 to 94	60 to 74	pest or weed control at 140 g/ha [2, 12]: 75 to 84%; pest or weed control at 70 g/ha [2, 13]: 0 to 29%; pest or weed control at 140 g/ha [2, 13]: 0 to 29%; pest or weed control at 140 g/ha [2, 14]: 85 to 94%; pest or weed control at 70 g/ha [2, 15]: 95 to 100%; pest or weed control at 140 g/ha [2, 15]: 95 to 100%; pest or weed control at 70 g/ha [2, 16]: 30 to 44%; pest or weed control at 140 g/ha [2, 16]: 30 to 44%; pest or weed control at 70 g/ha [2, 17]: 95 to 100%; pest or weed control at 140 g/ha [2, 17]: 95 to 100%
